Data taken from paper PMC4744035, “In Vivo, In Vitro, and In Silico Characterization of Peptoids as Antimicrobial Agents” (PLoS ONE, 2016).
In brackets after ≈: the same amount, converted by molar mass. Square brackets hold non-standard residues; d marks the D form. Peptide text beside a SMILES is read from it. Nspe = C[C@H](NCC(=O)O)c1ccccc1; Nphe = O=C(O)CNCc1ccccc1; Nlys = NCCCCNCC(=O)O

Columns and labels:
E. coli ATCC 35218 = assay type: cell-based
Procedure: MICs against B. subtilis and E. coli screening bacterial strains were determined using serial dilution in 96-well microtiter plates in accordance with CLSI M7-A6 protocols. Briefly, peptoid solution in cation-adjusted Mueller-Hinton broth was prepared by 2:1 serial dilution with a total volume of 50 µL per well. In experimental wells, 50 µL of bacterial inoculums (1 x 10^6 CFU/mL) were added to the peptoid solutions. Positive controls consisted of 50 µL inoculums added to 50 µL cation-adjusted Mueller-Hinton broth containing no peptoid, while negative controls contained only cation-adjusted Mueller-Hinton broth. […] Experiments were reproducible among three independent replicates, each consisting of two parallel trials.

erythrocytes = assay: Hemolytic activity (HD10/HD50); assay type: cell-based
Description: Table 1 Characteristics of antimicrobial peptoids, screened for activity against B. subtilis and E. coli bacterial strains. | column: HD10 / HD50

P. aeruginosa 9 (MDR) = assay: microbe, parasite or virus in culture; conditions: 9 (MDR)
Procedure: (§1) The MICs of test agents were measured using a modified broth micro-dilution method in Difco Mueller Hinton medium, on a panel of bacterial pathogens that were both susceptible and resistant to common antibiotics (S1 File). Briefly, serial dilutions were performed in 0.01% acetic acid containing 0.2% bovine serum albumin at 10-fold the desired final concentration. Ten μL of the 10-fold concentrated test reagents were added to each well of a 96-well polypropylene microtitre plate containing 90 μL of Mueller Hinton media per well. Bacteria were added to the plate from an overnight culture at a final concentration of 2–7 x 10^5 CFU/mL and incubated overnight at 37°C. The MIC is defined as the concentration at which no growth was observed.
(§2) Screening of peptoid antimicrobial activity against a panel of multidrug resistant superbugs was done according to the protocol described in the manuscript. The bacterial strains used in this panel included; P. aeruginosa PAO1 strain H103 [1], P. maltophilia ATCC#13637, S. aureus ATCC#25923 [1], E. faecalis ATCC#29212 [2], and E. cloacae 218R, constitutively expressing Class C chromosomal β-lactamase, were from the Hancock lab strains collection. An MRSA clinical isolate was kindly provided by Anthony Chow (Vancouver General Hospital, Vancouver, Canada). Two Klebsiella pneumoniae and two E. coli clinical isolates expressing extended spectrum β-lactamases (ESBL) were kindly provided by George Zhanel (Health Sciences Centre, Winnipeg, Canada). Vancomycin-resistant clinical isolates of Enterococcus faecalis and E. faecium were obtained from Ana M. Paccagnella (BC Centre for Disease Control, Vancouver, Canada). Three clinical isolates (#9, #198 and #213) of multi-drug resistant P. aeruginosa, were kindly provided by Carlos Kiffer (University of São Paulo, Brazil). […] Three P. aeruginosa clinical isolates of the Liverpool epidemic strain (LES) (H1027, H1030 and LES400) were all kindly provided by Craig Winstanley (University of Liverpool, UK). […] All tested bacterial strains were categorized as biohazard level 2 pathogens.

S. aureus C623 (MRSA) = assay: microbe, parasite or virus in culture; conditions: C623
Procedure: as §1, §2

[1] = test system: P. aeruginosa LES400 (MDR); assay: microbe, parasite or virus in culture; conditions: LES400 (MDR)
Procedure: as §1, §2

P. aeruginosa 213 (MDR) = assay: microbe, parasite or virus in culture; conditions: 213 (MDR)
Procedure: as §1, §2

E. faecium mic80 (VRE) = assay: microbe, parasite or virus in culture; conditions: mic80 (VRE)
Procedure: as §1, §2

[2] = test system: K. pneumonia 61962 (ESBL); assay: microbe, parasite or virus in culture
Procedure: as §1, §2

E. faecium T62764 (VRE) = assay: microbe, parasite or virus in culture; conditions: T62764 (VRE)
Procedure: as §1, §2

[3] = test system: P. aeruginosa H1027 (MDR); assay: microbe, parasite or virus in culture; conditions: H1027 (MDR)
Procedure: as §1, §2

P. maltophilia ATCC13637 = assay: microbe, parasite or virus in culture; conditions: ATCC13637
Procedure: as §1, §2

E. faecalis W61950 (VRE) = assay: microbe, parasite or virus in culture; conditions: W61950 (VRE)
Procedure: as §1, §2

E. faecalis ATCC29212 = assay: microbe, parasite or virus in culture; conditions: ATCC29212
Procedure: as §1, §2

E. coli 64771 (ESBL) = assay: microbe, parasite or virus in culture; conditions: 64771 (ESBL)
Procedure: as §1, §2

[4] = test system: E. cloacae 218R Class C β-lactamase; assay: microbe, parasite or virus in culture; conditions: 218R Class C β-lactamase
Procedure: as §1, §2

[5] = test system: K. pneumonia 63575 (ESBL); assay: microbe, parasite or virus in culture
Procedure: as §1, §2

E. coli 63103 (ESBL) = assay: microbe, parasite or virus in culture; conditions: 63103 (ESBL)
Procedure: as §1, §2

[6] = test system: P. aeruginosa H1030 (MDR); assay: microbe, parasite or virus in culture; conditions: P. aeruginosa H1030 (MDR)
Procedure: as §1, §2

S. aureus ATCC25923 = assay: microbe, parasite or virus in culture; conditions: ATCC25923
Procedure: as §1, §2

P. aeruginosa 198 (MDR) = assay: microbe, parasite or virus in culture; conditions: 198 (MDR)
Procedure: as §1, §2

[7] = test system: P. aeruginosa H103 (wild type); assay: microbe, parasite or virus in culture; conditions: H103 (wild type)
Procedure: as §1, §2

E. faecalis F43559 (VRE) = assay: microbe, parasite or virus in culture; conditions: F43559 (VRE)
Procedure: as §1, §2

NIH 3T3 cells = assay: Metabolic activity, MTS assay; assay type: cell-based, mouse
Procedure: NIH 3T3 mouse fibroblast cells were cultured in complete Dulbecco’s Modified Eagle’s Media. A peptoid solution plate (100 µL per well) was prepared by serial dilution of aqueous peptoid stock solutions in Hank’s balanced salt solution. A day-old cell monolayer was washed thoroughly with Hank’s balanced salt solution and replenished with 100 µL Hank’s balanced salt solution per well. Peptoid solutions were transferred onto the day-old cell monolayers, which contained approximately 5000 cells per well. […] The average of six replicate trials is reported.

| SMILES | MIC E. coli (E. coli ATCC 35218) [µM] | HD10 (hemolytic activity) (erythrocytes) | HD50 (hemolytic activity) (erythrocytes) | MIC (P. aeruginosa 9 (MDR)) [µg/mL] | MIC (S. aureus C623 (MRSA)) [µg/mL] | MIC [1] [µg/mL] | MIC (P. aeruginosa 213 (MDR)) [µg/mL] | MIC (E. faecium mic80 (VRE)) [µg/mL] | MIC [2] [µg/mL] | MIC (E. faecium T62764 (VRE)) [µg/mL] | MIC [3] [µg/mL] | MIC (P. maltophilia ATCC13637) [µg/mL] | MIC (E. faecalis W61950 (VRE)) [µg/mL] | MIC (E. faecalis ATCC29212) [µg/mL] | MIC (E. coli 64771 (ESBL)) [µg/mL] | MIC [4] [µg/mL] | MIC [5] [µg/mL] | MIC (E. coli 63103 (ESBL)) [µg/mL] | MIC [6] [µg/mL] | MIC (S. aureus ATCC25923) [µg/mL] | other results |
| --- | --- | --- | --- | --- | --- | --- | --- | --- | --- | --- | --- | --- | --- | --- | --- | --- | --- | --- | --- | --- | --- |
| C[C@@H](c1ccccc1)N(CC(N)=O)C(=O)CN(Cc1ccccc1)C(=O)CN(CCCCN)C(=O)CN(C(=O)CN(Cc1ccccc1)C(=O)CN(CCCCN)C(=O)CN(C(=O)CN(Cc1ccccc1)C(=O)CN(CCCCN)C(=O)CN(C(=O)CN(Cc1ccccc1)C(=O)CNCCCCN)[C@@H](C)c1ccccc1)[C@@H](C)c1ccccc1)[C@@H](C)c1ccccc1 [1-Npm2,5,8,11, H-(NLys-Npm-Nspe)4-NH2] (H-[Nlys][Nphe][Nspe][Nlys][Nphe][Nspe][Nlys][Nphe][Nspe][Nlys][Nphe][Nspe]-NH2) | 6.3 (≈ 11.1 µg/mL) | 87 | > 200 | 64 (≈ 36.3 µM) | 8 (≈ 4.54 µM) | 8 (≈ 4.54 µM) | 4 (≈ 2.27 µM) | 4 (≈ 2.27 µM) | 32 (≈ 18.1 µM) | 1 (≈ 0.567 µM) | 2 (≈ 1.13 µM) | 2 (≈ 1.13 µM) | 16 (≈ 9.07 µM) | 4 (≈ 2.27 µM) | 4 (≈ 2.27 µM) | 8 (≈ 4.54 µM) | 16 (≈ 9.07 µM) | 8 (≈ 4.54 µM) | 16 (≈ 9.07 µM) | 4 (≈ 2.27 µM) | MIC (P. aeruginosa 198 (MDR)): 8 µg/mL (≈ 4.54 µM); MIC [7]: 4 µg/mL (≈ 2.27 µM); MIC (E. faecalis F43559 (VRE)): 4 µg/mL (≈ 2.27 µM) |
| C[C@H](NCC(=O)N(CCCCN)CC(=O)N(CC(=O)N(CCCCN)CC(=O)N(CCCCN)CC(=O)N(CCCCN)CC(=O)N(CC(=O)N(CCCCN)CC(=O)N(CC(=O)N(CCCCN)CC(=O)N(CCCCN)CC(=O)N(CC(=O)N(CC(=O)N(CCCCN)CC(=O)N(CC(N)=O)[C@@H](C)c1ccccc1)[C@@H](C)c1ccccc1)[C@@H](C)c1ccccc1)[C@@H](C)c1ccccc1)[C@@H](C)c1ccccc1)[C@@H](C)c1ccccc1)c1ccccc1 [1B15mer-NLys4,6,10, H-(Nspe-NLys)2-NLys2-(Nspe-NLys)2-NLys-Nspe2-NLys-Nspe-NH2] (H-[Nspe][Nlys][Nspe][Nlys][Nlys][Nlys][Nspe][Nlys][Nspe][Nlys][Nlys][Nspe][Nspe][Nlys][Nspe]-NH2) |  | >200 / >200 | >200 / >200 |  |  |  |  |  |  |  |  |  |  |  |  |  |  |  |  |  | ID50 (inhibitory dose, metabolic activity) (NIH 3T3 cells): 40 µM |
| C[C@@H](c1ccccc1)N(CC(N)=O)C(=O)CN(C(=O)CN(CCCCN)C(=O)CN(C(=O)CN(C(=O)CN(CCCCN)C(=O)CN(C(=O)CN(C(=O)CN(CCCCN)C(=O)[C@@H]1CCCN1C(=O)CN(C(=O)CNCCCCN)[C@@H](C)c1ccccc1)[C@@H](C)c1ccccc1)[C@@H](C)c1ccccc1)[C@@H](C)c1ccccc1)[C@@H](C)c1ccccc1)[C@@H](C)c1ccccc1 [Peptoid 1-Pro3, H-NLys-Nspe-L-Pro-(NLys-Nspe-Nspe)3-NH2] (H-[Nlys][Nspe]P[Nlys][Nspe][Nspe][Nlys][Nspe][Nspe][Nlys][Nspe][Nspe]-NH2) | 12.5 (≈ 21.9 µg/mL) | 74 | > 200 | 128 (≈ 72.9 µM) | 4 (≈ 2.28 µM) | 8 (≈ 4.56 µM) | 8 (≈ 4.56 µM) | 4 (≈ 2.28 µM) | 32 (≈ 18.2 µM) | 2 (≈ 1.14 µM) | 2 (≈ 1.14 µM) | 1 (≈ 0.57 µM) | 16 (≈ 9.12 µM) | 8 (≈ 4.56 µM) | 8 (≈ 4.56 µM) | 16 (≈ 9.12 µM) | 32 (≈ 18.2 µM) | 16 (≈ 9.12 µM) | 16 (≈ 9.12 µM) | 4 (≈ 2.28 µM) | MIC (P. aeruginosa 198 (MDR)): 16 µg/mL (≈ 9.12 µM); MIC [7]: 8 µg/mL (≈ 4.56 µM); MIC (E. faecalis F43559 (VRE)): 8 µg/mL (≈ 4.56 µM) |
| C[C@@H](c1ccccc1)N(CC(N)=O)C(=O)CN(C(=O)CN(CCCCN)C(=O)[C@@H]1CCCN1C(=O)CN(C(=O)CN(CCCCN)C(=O)CN(C(=O)CN(C(=O)CN(CCCCN)C(=O)CN(C(=O)CN(C(=O)CNCCCCN)[C@@H](C)c1ccccc1)[C@@H](C)c1ccccc1)[C@@H](C)c1ccccc1)[C@@H](C)c1ccccc1)[C@@H](C)c1ccccc1)[C@@H](C)c1ccccc1 [Peptoid 1-Pro9, H-(NLys-Nspe2)2-NLys-Nspe-L-Pro-(NLys-Nspe2)-NH2] (H-[Nlys][Nspe][Nspe][Nlys][Nspe][Nspe][Nlys][Nspe]P[Nlys][Nspe][Nspe]-NH2) | 12.5 (≈ 21.9 µg/mL) | 165 | > 200 | 256 (≈ 146 µM) | 8 (≈ 4.56 µM) | 16 (≈ 9.12 µM) | 16 (≈ 9.12 µM) | 8 (≈ 4.56 µM) | 128 (≈ 72.9 µM) | 2 (≈ 1.14 µM) | 2 (≈ 1.14 µM) | 2 (≈ 1.14 µM) | 32 (≈ 18.2 µM) | 16 (≈ 9.12 µM) | 8 (≈ 4.56 µM) | 32 (≈ 18.2 µM) | 64 (≈ 36.5 µM) | 32 (≈ 18.2 µM) | 32 (≈ 18.2 µM) | 8 (≈ 4.56 µM) | MIC (P. aeruginosa 198 (MDR)): 32 µg/mL (≈ 18.2 µM); MIC [7]: 8 µg/mL (≈ 4.56 µM); MIC (E. faecalis F43559 (VRE)): 8 µg/mL (≈ 4.56 µM) |
